Results taken from ChEMBL document CHEMBL1782000, “Thiazole-based chalcones as potent antimicrobial agents. Synthesis and biological evaluation” (2011).
Converted amounts (≈) assume the structure as drawn.

Key:
Salmonella typhimurium [1] = experiment: Bactericidal activity against Salmonella Typhimurium ATCC 13311 after 24 hrs; format: functional, Salmonella enterica subsp. enterica serovar Typhimurium; settings: Salmonella enterica, ATCC 13311, 24 h
Enterococcus faecalis [2] = experiment: Bactericidal activity against Enterococcus faecalis isolate obtained from human after 24 hrs; format: functional
Aspergillus fumigatus [3] = experiment: Fungicidal activity against Aspergillus fumigatus plant isolate after 72 hrs; format: functional
Trichoderma viride [4] = experiment: Antifungal activity against Trichoderma viride IAM 5061 after 72 hrs by serial dilution method; format: functional; settings: IAM 5061, 72 h
[5] = test system: Fusarium sporotrichioides; experiment: Fungicidal activity against Fusarium sporotrichioides IMT 496 after 72 hrs; format: functional; settings: IMT 496, 72 h
Listeria monocytogenes [6] = experiment: Bactericidal activity against Listeria monocytogenes NCTC 7973 after 24 hrs; format: functional; settings: NCTC 7973, 24 h
Aspergillus ochraceus [7] = experiment: Fungicidal activity against Aspergillus ochraceus ATCC 12066 after 72 hrs; format: functional; settings: ATCC 12066, 72 h
Micrococcus flavus [8] = experiment: Antibacterial activity against Micrococcus flavus ATCC 10240 after 24 hrs by microdilution method; format: functional; settings: ATCC 10240, 24 h
Aspergillus versicolor [9] = experiment: Antifungal activity against Aspergillus versicolor ATCC 11730 after 72 hrs by serial dilution method; format: functional; settings: ATCC 11730, 72 h
Staphylococcus aureus [10] = experiment: Bactericidal activity against Staphylococcus aureus ATCC 6538 after 24 hrs; format: functional; settings: ATCC 6538, 24 h
Escherichia coli [11] = experiment: Bactericidal activity against Escherichia coli ATCC 35210 after 24 hrs; format: functional; settings: ATCC 35210, 24 h
Talaromyces funiculosus [12] = experiment: Antifungal activity against Penicillium funiculosum ATCC 36839 after 72 hrs by serial dilution method; format: functional; settings: ATCC 36839, 72 h
Staphylococcus aureus [13] = experiment: Antibacterial activity against Staphylococcus aureus ATCC 6538 after 24 hrs by microdilution method; format: functional; settings: ATCC 6538, 24 h
Escherichia coli [14] = experiment: Antibacterial activity against Escherichia coli ATCC 35210 after 24 hrs by microdilution method; format: functional; settings: ATCC 35210, 24 h
Talaromyces funiculosus [15] = experiment: Fungicidal activity against Penicillium funiculosum ATCC 36839 after 72 hrs; format: functional; settings: ATCC 36839, 72 h
Aspergillus niger [16] = experiment: Antifungal activity against Aspergillus niger ATCC 6275 after 72 hrs by serial dilution method; format: functional; settings: ATCC 6275, 72 h
Trichoderma viride [17] = experiment: Fungicidal activity against Trichoderma viride IAM 5061 after 72 hrs; format: functional; settings: IAM 5061, 72 h
Micrococcus flavus [18] = experiment: Bactericidal activity against Micrococcus flavus ATCC 10240 after 24 hrs; format: functional; settings: ATCC 10240, 24 h
Aspergillus ochraceus [19] = experiment: Antifungal activity against Aspergillus ochraceus ATCC 12066 after 72 hrs by serial dilution method; format: functional; settings: ATCC 12066, 72 h
Bacillus cereus [20] = experiment: Bactericidal activity against Bacillus cereus clinical isolate after 24 hrs; format: functional
[21] = Antifungal activity against Fusarium sporotrichioides IMT 496 after 72 hrs by serial dilution method; format: functional
Aspergillus niger [22] = experiment: Fungicidal activity against Aspergillus niger ATCC 6275 after 72 hrs; format: functional; settings: ATCC 6275, 72 h
Bacillus cereus [23] = experiment: Antibacterial activity against Bacillus cereus clinical isolate after 24 hrs by microdilution method; format: functional
Salmonella typhimurium [24] = experiment: Antibacterial activity against Salmonella Typhimurium ATCC 13311 after 24 hrs by microdilution method; format: functional, Salmonella enterica subsp. enterica serovar Typhimurium; settings: Salmonella enterica, ATCC 13311, 24 h
Enterococcus faecalis [25] = experiment: Antibacterial activity against Enterococcus faecalis isolate obtained from human after 24 hrs by microdilution method; format: functional
Listeria monocytogenes [26] = experiment: Antibacterial activity against Listeria monocytogenes NCTC 7973 after 24 hrs by microdilution method; format: functional; settings: NCTC 7973, 24 h
Penicillium ochrochloron [27] = experiment: Antifungal activity against Penicillium ochrochloron ATCC 9112 after 72 hrs by serial dilution method; format: functional; settings: ATCC 9112, 72 h
Pseudomonas aeruginosa [28] = experiment: Bactericidal activity against Pseudomonas aeruginosa ATCC 27853 after 24 hrs; format: functional; settings: ATCC 27853, 24 h
Aspergillus fumigatus [29] = experiment: Antifungal activity against Aspergillus fumigatus plant isolate after 72 hrs by serial dilution method; format: functional
Penicillium ochrochloron [30] = experiment: Fungicidal activity against Penicillium ochrochloron ATCC 9112 after 72 hrs; format: functional; settings: ATCC 9112, 72 h
Micrococcus flavus [31] = experiment: Ratio of Ampicillin MIC to compound MIC for Micrococcus flavus ATCC 10240 after 24 hrs; format: functional
Pseudomonas aeruginosa [32] = experiment: Antibacterial activity against Pseudomonas aeruginosa ATCC 27853 after 24 hrs by microdilution method; format: functional; settings: ATCC 27853, 24 h
Aspergillus versicolor [33] = experiment: Fungicidal activity against Aspergillus versicolor ATCC 11730 after 72 hrs; format: functional; settings: ATCC 11730, 72 h

| Compound | MBC (Salmonella typhimurium [1]) | MBC (Enterococcus faecalis [2]) | MFC (Aspergillus fumigatus [3]) | MIC (Trichoderma viride [4]) | MFC [5] | MBC (Listeria monocytogenes [6]) | MFC (Aspergillus ochraceus [7]) | MIC (Micrococcus flavus [8]) | MIC (Aspergillus versicolor [9]) | MBC (Staphylococcus aureus [10]) | MBC (Escherichia coli [11]) | MIC (Talaromyces funiculosus [12]) | MIC (Staphylococcus aureus [13]) | MIC (Escherichia coli [14]) | MFC (Talaromyces funiculosus [15]) | MIC (Aspergillus niger [16]) | MFC (Trichoderma viride [17]) | MBC (Micrococcus flavus [18]) | MIC (Aspergillus ochraceus [19]) | MBC (Bacillus cereus [20]) | also measured |
| --- | --- | --- | --- | --- | --- | --- | --- | --- | --- | --- | --- | --- | --- | --- | --- | --- | --- | --- | --- | --- | --- |
| CNc1nc(C)c(C(=O)/C=C/c2ccc(Cl)cc2)s1 | 342 µM (≈ 100 µg/mL) | 342 µM (≈ 100 µg/mL) | 340 µM (≈ 99.5 µg/mL) | 170 µM (≈ 49.8 µg/mL) | 170 µM (≈ 49.8 µg/mL) | 513 µM (≈ 150 µg/mL) | 513 µM (≈ 150 µg/mL) | 85.4 µM (≈ 25 µg/mL) | 170 µM (≈ 49.8 µg/mL) | 684 µM (≈ 200 µg/mL) | 342 µM (≈ 100 µg/mL) | 170 µM (≈ 49.8 µg/mL) | 513 µM (≈ 150 µg/mL) | 290 µM (≈ 85.1 µg/mL) | 340 µM (≈ 99.5 µg/mL) | 170 µM (≈ 49.8 µg/mL) | 340 µM (≈ 99.5 µg/mL) | 342 µM (≈ 100 µg/mL) | 340 µM (≈ 99.5 µg/mL) | 513 µM (≈ 150 µg/mL) | MIC (10'-2 umol/ml) [21]: 17; MFC (Aspergillus niger [22]): 340 µM (≈ 99.5 µg/mL); MIC (Bacillus cereus [23]): 342 µM (≈ 100 µg/mL); MIC (Salmonella typhimurium [24]): 290 µM (≈ 85.1 µg/mL); MIC (Enterococcus faecalis [25]): 171 µM (≈ 50.1 µg/mL); MIC (Listeria monocytogenes [26]): 342 µM (≈ 100 µg/mL); MIC (Penicillium ochrochloron [27]): 340 µM (≈ 99.5 µg/mL); MBC (Pseudomonas aeruginosa [28]): 342 µM (≈ 100 µg/mL); MIC (Aspergillus fumigatus [29]): 170 µM (≈ 49.8 µg/mL); MFC (Penicillium ochrochloron [30]): 513 µM (≈ 150 µg/mL); Ratio (Micrococcus flavus [31]): 3; MIC (Pseudomonas aeruginosa [32]): 256 µM (≈ 75.1 µg/mL); MFC (Aspergillus versicolor [33]): 340 µM (≈ 99.5 µg/mL) |
| CNc1nc(C)c(C(=O)/C=C/c2ccccc2OC)s1 | 521 µM (≈ 150 µg/mL) | 347 µM (≈ 100 µg/mL) | 520 µM (≈ 150 µg/mL) | 170 µM (≈ 49 µg/mL) | 340 µM (≈ 98 µg/mL) | 521 µM (≈ 150 µg/mL) | 340 µM (≈ 98 µg/mL) | 260 µM (≈ 75.1 µg/mL) | 340 µM (≈ 98 µg/mL) | 347 µM (≈ 100 µg/mL) | 347 µM (≈ 100 µg/mL) | 340 µM (≈ 98 µg/mL) | 347 µM (≈ 100 µg/mL) | 260 µM (≈ 75.1 µg/mL) | 690 µM (≈ 199 µg/mL) | 340 µM (≈ 98 µg/mL) | 340 µM (≈ 98 µg/mL) | 295 µM (≈ 85.1 µg/mL) | 170 µM (≈ 49 µg/mL) | 347 µM (≈ 100 µg/mL) | MIC (10'-2 umol/ml) [21]: 17; MFC (Aspergillus niger [22]): 870 µM (≈ 251 µg/mL); MIC (Bacillus cereus [23]): 347 µM (≈ 100 µg/mL); MIC (Salmonella typhimurium [24]): 347 µM (≈ 100 µg/mL); MIC (Enterococcus faecalis [25]): 260 µM (≈ 75.1 µg/mL); MIC (Listeria monocytogenes [26]): 347 µM (≈ 100 µg/mL); MIC (Penicillium ochrochloron [27]): 340 µM (≈ 98 µg/mL); MBC (Pseudomonas aeruginosa [28]): 347 µM (≈ 100 µg/mL); MIC (Aspergillus fumigatus [29]): 340 µM (≈ 98 µg/mL); MFC (Penicillium ochrochloron [30]): 520 µM (≈ 150 µg/mL); MIC (Pseudomonas aeruginosa [32]): 295 µM (≈ 85.1 µg/mL); MFC (Aspergillus versicolor [33]): 520 µM (≈ 150 µg/mL) |
| CNc1nc(C)c(C(=O)/C=C/c2ccc(Cl)cc2Cl)s1 | 306 µM (≈ 100 µg/mL) | 459 µM (≈ 150 µg/mL) | 612 µM (≈ 200 µg/mL) | 153 µM (≈ 50 µg/mL) | 306 µM (≈ 100 µg/mL) | 459 µM (≈ 150 µg/mL) | 612 µM (≈ 200 µg/mL) | 306 µM (≈ 100 µg/mL) | 153 µM (≈ 50 µg/mL) | 459 µM (≈ 150 µg/mL) | 459 µM (≈ 150 µg/mL) | 153 µM (≈ 50 µg/mL) | 306 µM (≈ 100 µg/mL) | 306 µM (≈ 100 µg/mL) | 306 µM (≈ 100 µg/mL) | 459 µM (≈ 150 µg/mL) | 306 µM (≈ 100 µg/mL) | 459 µM (≈ 150 µg/mL) | 306 µM (≈ 100 µg/mL) | 306 µM (≈ 100 µg/mL) | MIC (10'-2 umol/ml) [21]: 15.3; MFC (Aspergillus niger [22]): 612 µM (≈ 200 µg/mL); MIC (Bacillus cereus [23]): 229 µM (≈ 75 µg/mL); MIC (Salmonella typhimurium [24]): 229 µM (≈ 75 µg/mL); MIC (Enterococcus faecalis [25]): 306 µM (≈ 100 µg/mL); MIC (Listeria monocytogenes [26]): 306 µM (≈ 100 µg/mL); MIC (Penicillium ochrochloron [27]): 306 µM (≈ 100 µg/mL); MBC (Pseudomonas aeruginosa [28]): 306 µM (≈ 100 µg/mL); MIC (Aspergillus fumigatus [29]): 153 µM (≈ 50 µg/mL); MFC (Penicillium ochrochloron [30]): 612 µM (≈ 200 µg/mL); MIC (Pseudomonas aeruginosa [32]): 306 µM (≈ 100 µg/mL); MFC (Aspergillus versicolor [33]): 612 µM (≈ 200 µg/mL) |
